Test results taken from US20030113421A1, “Synergistic combinations of natural of compounds that control decay of fruits and vegetables and reduce contamination by foodborne human pathogens” (priority 2001, published 2003).
Where two headings read alike, the source gives them in different places.

Tests used:
[1] = tested on: E. coli; format: cell-based, Escherichia coli; settings: for concentration at which inhibitory to E. coli growth: essential oil tested individually
Method: (§1) E. coli (Strain #139 HB101/p5G6) was grown at 24° C. for 48 hr in shake-flask cultures of Lennox broth (LB). Bacterial cells were pelleted by centrifugation in a Sorvall RC-58 centrifuge (Dupont Instruments, Wilmington, Del.) at 3000 g for 20 min, resuspended in sterile distilled water, and centrifuged again. The resulting pellets were dispersed in sterile distilled water and the cell concentration was adjusted to 10^6 CFU per ml using a standard optical density (OD) curve with the OD values of 0.1 and 1 representing viable cell counts of 1×10^6 and 1×10^9, respectively. E. coli 015:H7 and L. monocytogenes isolates were grown overnight at 37° C. in trypticase soy broth and brain heart infusion, respectively. The concentration of cells was adjusted to 10^6 CFU per ml. Botrytis cinerea and Penicillium expansum were isolated from infected fruit and maintained on potato dextrose agar (PDA). A spore suspension was obtained by flooding 2 wk cultures of B. cinerea with sterile distilled water containing 0.1% (v/v) TWEEN 80. Spore counts were determined with a hemacytometer and spore concentrations were adjusted with sterile distilled water to obtain 10^5 spores per ml.
(§2) The individual effects of various essential oils and chitosan salts, and the combined effects of essential oils and chitosan salts on the growth of the indicator organism E. coli and on the postharvest pathogen B. cinerea were determined. To measure the effects of the various treatments on spore germination of B. cinerea and growth of the E. coli, the essential oils: bay, cinnamon, savory, thyme red, allspice, birch, cloves, carvacrol, and hinokitiol (Aroma Vera, Cuber City, Calif.) and MMW chitosan in acetic, propionic, and sorbic acids were combined together with B. cinerea or E. coli to yield final concentrations of 0.1 to 0.025% for the essential oils and 0.1 to 0.0016% for the chitosan salts. For the assays, 500 spores of B. cinerea were added to each treatment in microtiter dishes or three ml of a 2X concentration of E. coli (i.e., 2×10^6 CFU/ml) were combined with three ml of a 2X concentration of treatment in a 15 ml centrifuge tube, agitated overnight, and plated after 24 hr onto LB agar plates (100 μl suspension/plate). The surfactant (Triton×100) was present at a final concentration of 0.04%. […] Four replicate tubes of each treatment were used; each experiment was repeated twice. The viable bacterial cell number was counted by surface plating serially diluted samples in triplicate on LB agar medium. Plates were incubated at 24° C. and colonies were counted at 48 hr. Botrytis spore germination was determined microscopically.

[2] = tested on: B. cinerea; test: Effect of concentration and of synergistic combinations of essential oils and chitosan salts on spore germination of B. cinerea; format: cell-based, Botrytis cinerea
Method: as §1, §2

[3] = tested on: E. coli on apple disks; parameters: species or system Escherichia coli
Method: as §1
Tree-ripe apples (Malus domestica Borkh) cultivar ‘Red delicious’ were hand-picked at harvest maturity at the Appalachian Fruit Research Station, Kearneysville, W. Va. Fruit were sorted to remove any with apparent injuries or infections and stored at 4° C. under refrigeration before being used in the biocontrol tests. Apple disks (10 mm) were excised from selected Red delicious apples using a cork borer. Apple disks were treated by immersion for 90 min in a 0.1% solution of various essential oils and/or their combinations with 0.1 % chitosan salts. Disks were either treated with the different combinations of natural compounds and then inoculated with E. coli by soaking apple disks in a solution of E. coli for 90 min or inoculated with E. coli and incubated at 24° C. for 24 hr. From each treatment four disks were selected randomly, individually homogenized in 5 ml of sterile water, vortexed, and dilution plated in triplicate on a LB agar medium. Plates were incubated at 24° C. and colonies were counted after 48 hr.

[4] = essential oil alone 0.025% v/v, CFU in 100 μl sample
[5] = essential oil alone 0.05% v/v, CFU in 100 μl sample
[6] = essential oil alone 0.075% v/v, CFU in 100 μl sample
[7] = essential oil alone 0.1% v/v, CFU in 100 μl sample

Cc1ccc(C(C)C)cc1O [Carvacrol, carvacrol]
Growth of E. coli (CFU), synergy table [1]: 1430 CFU | Growth of E. coli (CFU) [1, 4]: TNTC | Growth of E. coli (CFU) [1, 5]: 0 CFU | Growth of E. coli (CFU) [1, 6]: 0 CFU | Growth of E. coli (CFU) [1, 7]: 0 CFU | concentration at which inhibitory to E. coli growth [1]: 0.05%

CC(C)c1cccc(=O)c(O)c1 [Hinokitiol, hinokitiol]
Percent Inhibition of Spore Germination, combination [2]: 100% | Percent Inhibition of Spore Germination, combination ([2]; essential oil 0.067% + Chitosan acetate 0.02%): 100% | Percent Inhibition of Spore Germination, combination ([2]; essential oil 0.067% + Chitosan propionate 0.02%): 100% | Percent Inhibition of Spore Germination, synergy table ([2]; essential oil 0.067% + Water (no chitosan salt)): 0% | Growth of E. coli (CFU), combination [1]: 60 CFU | Growth of E. coli (CFU), combination ([1]; essential oil 0.075% + Chitosan acetate 0.0032%, CFU in 100 μl sample): 102 CFU | Growth of E. coli (CFU), combination ([1]; essential oil 0.075% + Chitosan propionate 0.0032%, CFU in 100 μl sample): 56 CFU | Growth of E. coli (CFU), synergy table ([1]; essential oil 0.075% + Water (no chitosan salt), CFU in 100 μl sample): 1108 CFU | Growth of E. coli (CFU) [1, 4]: TNTC | Growth of E. coli (CFU) [1, 5]: TNTC | Growth of E. coli (CFU) [1, 6]: 812 CFU | Growth of E. coli (CFU) [1, 7]: 0 CFU | concentration at which inhibitory to E. coli growth [1]: 0.075%

CCC(=O)O [Propionate]
Eradicant Activity E. coli (CFU) ([3]; apple disks immersed in 10^6 CFU per ml E. coli for 90 min, drained, then treated (0.1% v/v)): TNTC | Protectant Activity E. coli (CFU) ([3]; apple disks treated (0.1% v/v), thereafter immersed in 10^6 CFU per ml E. coli for 90 min, CFU in 100 ml sample): TNTC

CC=CC=CC(=O)O [Sorbate]
Eradicant Activity E. coli (CFU) [3]: TNTC | Protectant Activity E. coli (CFU) [3]: TNTC
